Measured values: patent publication US20080305186A1, “Method and Composition for the Treatment of Cardiac Hypertrophy” (BOARD OF REGENTS, THE UNIVERSITY OF TEXAS SYSTEM, priority 2007, published 2008)

Tested on: cardiac gene expression
Test: Microarray analysis of cardiac gene expression (GeneChip Mouse Genome 430 2.0)
Format: in vivo, mice
Description: Microarray Sample Preparation and Analysis. Animal hearts were rapidly removed, and the atria and right ventricles were cut and immediately plunged into TRIzol Reagent (Life Technologies). Total RNA was isolated following the manufacturer's instructions, purified by phenol-chloroform extraction and then ethanol precipitation, and 20 μg further processed for microarray analysis. Briefly, cDNA synthesis, in vitro transcription, and labeling and fragmentation to produce the oligonucleotide probes were performed as instructed by the GeneChip manufacturer (Affymetrix). The probes were first hybridized to a test array (Affymetrix) and then to the GeneChip Mouse Genome 430 2.0 Array, using the GeneChip Hybridization Oven 640. The chips were washed in a GeneChip Fluidics Station 450 (Affymetrix), and the results were visualized with a GeneChip G7 scanner (Affymetrix). RMA normalization, pairwise comparisons, Student's t test and Benjamini and Hochberg correction were subsequently performed using GeneSifter (VizX Labs, Seattle, Wash.) and Spotfire DecisionSite 8.3 (Spotfire, Inc., Somerville, Mass.).
Effects on Gene Expression Profile. […] One mouse heart was used for each array, and was performed in triplicate, generating a total of 12 arrays. GeneSifter was used to perform RMA normalization, pairwise comparisons of averaged signal intensity values, and Student's t-test with Benjamini and Hochberg correction, and Spotfire was used to perform pairwise comparisons. […] Additionally, genes that were altered between any two N or cardiac hypertrophy samples were removed, as these alterations most likely represented normal variations between mice.

[1] = mouse heart, vs isoproterenol only (CH), CH vs normal −1.7
[2] = mouse heart, vs isoproterenol only (CH), CH vs normal −1.8
[3] = mouse heart, vs isoproterenol only (CH), CH vs normal −1.9
[4] = mouse heart, vs isoproterenol only (CH), CH vs normal −2.0
[5] = mouse heart, vs isoproterenol only (CH), CH vs normal −2.1
[6] = mouse heart, vs isoproterenol only (CH), CH vs normal −2.4
[7] = mouse heart, vs isoproterenol only (CH), CH vs normal −2.5
[8] = mouse heart, vs isoproterenol only (CH), CH vs normal −2.6
[9] = mouse heart, vs isoproterenol only (CH), CH vs normal −2.7
[10] = mouse heart, vs isoproterenol only (CH), CH vs normal −2.8
[11] = mouse heart, vs isoproterenol only (CH), CH vs normal −2.9
[12] = mouse heart, vs isoproterenol only (CH), CH vs normal −3.0
[13] = mouse heart, vs isoproterenol only (CH), CH vs normal −3.2
[14] = mouse heart, vs isoproterenol only (CH), CH vs normal −3.3
[15] = mouse heart, vs isoproterenol only (CH), CH vs normal −3.9

C[C@H]1c2cccc(O)c2C(=O)C2=C(O)[C@]3(O)C(=O)C(C(N)=O)=C(O)[C@@H](N(C)C)[C@@H]3[C@@H](O)[C@@H]21 [doxycycline]
FC EphrinB3 (Efnb3), BQ175608 [1]: 1.6 fold | FC Nuclear factor IB (Nfib), BB092799 [1]: 4.0 fold | FC Preimplantation protein 4 (Prei4), BB550273 [1]: 3.6 fold | FC Triple futional domain (PTPRF interacting) (Trio), BB794936 [1]: 3.0 fold | FC cDNA, AK020162 [1]: 1.7 fold | FC ATPase, Na+/K+ transporting, alpha 1 polypeptide (Atp1a1), BC025618 (mouse heart, vs isoproterenol only (CH), CH vs normal −1.7, first BC025618 line): 2.4 fold | FC EST, BB126796 [2]: 6.5 fold | FC EST, BB451134 [2]: 7.5 fold | FC Metastasis suppressor 1 (Mtss1), BB326749 [2]: 2.0 fold | FC Tetratricopeptide repeat domain (Ttc3), BB833716 [2]: 3.0 fold | FC EST, BM941198 [3]: 3.2 fold | FC Jumonji, AT rich interactive domain 1A (Rbp2 like) (Jarid1a), BB376407 [3]: 2.6 fold | FC cDNA, BB006809 [3]: 2.1 fold | FC Guanine nucleotide binding protein, alpha 12 (Gna12), NM_010302 [4]: 3.0 fold | FC Zi finger and BTB domain containing 20 (Zbtb20), BB175650 [4]: 2.3 fold | FC cDNA, BC002200 [4]: 4.8 fold | FC ATPase, Na+/K+ transporting, alpha 1 polypeptide (Atp1a1), BC025618 (mouse heart, vs isoproterenol only (CH), CH vs normal −2.0, second BC025618 line): 2.7 fold | FC Adenylate kinase 4 (Ak4), NM_009647 [5]: 2.2 fold | FC Beta-tubulin gene M-beta-2 (Tubb2a), M28739 [5]: 1.7 fold | FC C1q and tumor necrosis factor related protein 4 (C1qtnf4), NM_026161 [5]: 1.5 fold | FC Cold inducible RNA binding protein (Cirbp), NM_007705 [5]: 1.7 fold | FC Coronin, actin binding protein 1C (Coro1c), NM_011779 [5]: 2.1 fold | FC Adrenergic receptor, alpha 1b (Adra1b), NM_007416 (mouse heart, vs isoproterenol only (CH), CH vs normal −2.3): 1.8 fold | FC CXXC finger 5 (Cxxc5), AK015150 [6]: 2.1 fold | FC DNA segment, Chr 9, ERATO Doi 256, expressed, BG066667 [6]: 3.3 fold | FC Insulin degrading enzyme (Ide), AK014703 [6]: 2.1 fold | FC Sno, strawbeny notch homolog 1 (Sno1), BE947961 [6]: 3.0 fold | FC cDNA, BB748887 [6]: 3.9 fold | FC B-cell translocation gene 2, anti-proliferative (Btg2), BG965405 [7]: 2.2 fold | FC cDNA, BC026793 [7]: 2.5 fold | FC Cbp/p300-interacting transactivator, with Glu/Asp-rich carboxy-terminal domain, 4 (Cited4), BC025116 [8]: 2.0 fold | FC Desmoglein 2 (Dsg2), AB072269 [8]: 3.0 fold | FC Heat shock protein, 84 kDa 1 (Hsp90ab1), BI154147 [8]: 8.7 fold | FC Myocyte enhaer factor 2C (Mef2c), AI595932 [8]: 4.5 fold | FC Restin-like 2 (Rsnl2), AK018895 [8]: 3.8 fold | FC Jumonji domain containing 3 (Jmjd3), AW763746 [9]: 5.0 fold | FC cDNA (similar to integrin beta 1 binding protein 3), AK009897 [9]: 4.0 fold | FC ADP-ribosylation factor 2 (Arf2), AV023312 [10]: 2.5 fold | FC Karyopherin (importin) beta 1 (Kpnb1), AW544889 [10]: 3.6 fold | FC PPAR gamma coactivator-1beta protein (Ppargc1b), NM_133249 [11]: 4.4 fold | FC SET and MYND domain containing 1 (Smyd1), NM_009762 [11]: 2.7 fold | FC cDNA, AK013448 [11]: 2.6 fold | FC Dual specificity phosphatase 8 (Dusp8), NM_008748 [12]: 2.8 fold | FC GATA binding protein 4 (Gata4), NM_008092 [12]: 2.7 fold | FC ATP synthase, H+ transporting, mitochondrial F1 complex, alpha subunit, isoform 1 (Atp5a1), C78762 (mouse heart, vs isoproterenol only (CH), CH vs normal −3.1): 1.7 fold | FC Actin, beta, cytoplasmic (Actb), AW537707 [13]: 4.9 fold | FC Methionine sulfoxide reductase B3 (Msrb3), BB277041 [13]: 7.2 fold | FC Cyclin D1 (Ccnd1), BB538325 [14]: 2.7 fold | FC Thymoma viral proto-oogene 1 (Akt1), M94335 [14]: 2.1 fold | FC cDNA, BB283973 [14]: 4.1 fold | FC cDNA, BB534971 (mouse heart, vs isoproterenol only (CH), CH vs normal −3.5): 2.9 fold | FC cDNA, BB026304 (mouse heart, vs isoproterenol only (CH), CH vs normal −3.8): 4.1 fold | FC Connexin 43 (alpha-1 gap jution) (Gja1), M63801 [15]: 3.6 fold | FC Kinesin-like protein (Kif1b), D17577 [15]: 4.8 fold | FC Kv channel-interacting protein 2a (Kcnip2), AF439339 (mouse heart, vs isoproterenol only (CH), CH vs normal −4.4): 3.7 fold | FC Potassium voltage-gated channel, Isk-related subfamily, member 1 (Kcne1), NM_008424 (mouse heart, vs isoproterenol only (CH), CH vs normal −4.6): 1.5 fold | FC Tumor rejection antigen gp96 (Tra1); heat shock protein 90 kDa beta (Grp94), member 1 (Hsp90b1), BE995678 (mouse heart, vs isoproterenol only (CH), CH vs normal −9.4): 8.0 fold | FC Cadherin 13 (Cdh13), AK016527 (mouse heart, vs isoproterenol only (CH), CH vs normal −10.0): 9.8 fold | FC cDNA (D site albumin promoter binding protein, Dbp), BB550183 (mouse heart, vs isoproterenol only (CH), CH vs normal −11.5): 12.0 fold | number of the 472 cardiac hypertrophy-specific Combo-altered genes also altered by the drug alone (statistical parameters lifted (average fold-changes irrespective of statistical measures)): 453
